Reference: patent US7759345B2, “Antitumoral derivatives of ET-743” (priority 2001, dated 2010)
Where two headings read alike, the source gives them in different places.

Columns and labels:
SK-MEL-28 = assay: Inhibition of cells growth by colorimetric assay (SRB), SK-MEL-28; type: cell-based; conditions: for GI50 / CC50: Homo sapiens, SK-MEL-28, 48 h; for GI50 / MEL-28 TGI: SRB assay, 48 hours exposure; for GI50: read-out: MEL-28 GI50; for CC50: read-out: MEL-28 LC50, SRB assay, 48 hours exposure
Outline: (§1)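 5×10^3 cells/well; 18 h attach; compound 10–10^−8 μg/ml in DMSO/EtOH/PBS (0.5:0.5:99), 48 h, 37 °C, 5% CO2; cold 50% TCA fix 60 min 4 °C; 0.4% SRB 10 min RT; Tris solubilization; OD 490 nm; triplicates.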

MDA-MB-231 = assay: Inhibition of cells growth by colorimetric assay (SRB), MDA-MB-231; type: cell-based; conditions: for CC50 / GI50: Homo sapiens; for CC50: MDA-MB-231, 48 h, read-out: MB-231 LC50; for GI50: MDA-MB-231, read-out: MB-231 GI50; for GI50 / MB-231 TGI: SRB assay, 48 hours exposure
Procedure: (§2) 2°.—Inhibition of Cells Growth by Colorimetric Assay.
(§3) A colorimetric type of assay, using sulforhodamine B (SRB) reaction has been adapted for a quantitative measurement of cell growth and viability [following the technique described by Philip Skehan, et al. (1990), New colorimetric cytotoxicity assay for anticancer drug screening, J. Natl. Cancer Inst., 82:1107-1112]
(§4) This form of the assay employs 96 well cell culture microplates of 9 mm diameter (Faircloth, 1988; Mosmann, 1983). Most of the cell lines are obtained from American Type Culture Collection (ATCC) derived from different human cancer types.
(§5) Cells are maintained in RPMI 1640 10% FBS, supplemented with 0.1 g/l penicillin and 0.1 g/l streptomycin sulfate and then incubated at 37° C., 5% CO2 and 98% humidity. For the experiments, cells were harvested from subconfluent cultures using trypsin and resuspended in fresh medium before plating.
(§6) Cells are seeded in 96 well microtiter plates, at 5×10^3 cells per well in aliquots of 195 μl medium, and they are allowed to attach to the plate surface by growing in drug free medium for 18 hours. Afterward, samples are added in aliquots of 5 μl in a ranging from 10 to 10^−8 μg/ml, dissolved in DMSO/EtOH/PBS (0.5:0.5:99). After 48 hours exposure, the antitumor effect are measured by the SRB methodology: cells are fixed by adding 50 μl of cold 50% (wt/vol) trichloroacetic acid (TCA) and incubating for 60 minutes at 4° C. Plates are washed with deionized water and dried. One hundred μl of SRB solution (0.4% wt/vol in 1% acetic acid) is added to each microtiter well and incubated for 10 minutes at room temperature. Unbound SRB is removed by washing with 1% acetic acid. Plates are air dried and bound stain is solubilized with Tris buffer. Optical densities are read on a automated spectrophotometric plate reader at a single wavelength of 490 nm.
(§7) The values for mean+/−SD of data from triplicate wells are calculated. Some parameters for cellular responses can be calculated: GI=growth inhibition, TGI=total growth inhibition (cytostatic effect) and LC=cell killing (cytotoxic effect).
(§8) Obtained results may predict the usefulness of a certain drug as a potential cancer treatment. For this technique, compounds which show GI50 values smaller than 10 μg/ml are selected to continue with further studies. GI50's data allow to predict that not only could a drug be cystostatic, but also it could have a potential in terms of tumor reduction.

MCF-7 = assay: Inhibition of cells growth by colorimetric assay (SRB), MCF-7; type: cell-based; conditions: for GI50 / CC50: Homo sapiens; for GI50: read-out: MCF GI50; for CC50: read-out: MCF LC50
Procedure: as §2, §3, §4, §5, §6, §7, §8

A-498 = assay: Inhibition of cells growth by colorimetric assay (SRB), A-498; type: cell-based; conditions: for LC50 / GI50: Homo sapiens; for LC50: A498, 48 h, read-out: A-498 LC50; for GI50: A498, read-out: A-498 GI50; for GI50 / A-498 TGI: SRB assay, 48 hours exposure
Procedure: as §2, §3, §4, §5, §6, §7, §8

SW620 = assay: Inhibition of cells growth by colorimetric assay (SRB), SW620; type: cell-based; conditions: for GI50 / LC50: Homo sapiens; for GI50: read-out: SW-620 GI50; for LC50: read-out: SW-620 LC50
Procedure: as §2, §3, §4, §5, §6, §7, §8

A-549 = assay: Inhibition of cells growth by colorimetric assay (SRB), A-549; type: cell-based; conditions: for GI50 / LC50 (concentration for 50% cell killing): Homo sapiens, A549, 48 h; for GI50: read-out: A-549 GI50; for LC50 (concentration for 50% cell killing): read-out: A-549 LC50, SRB assay, 48 hours exposure
Outline: as §1

HT-29 = assay: Inhibition of cells growth by colorimetric assay (SRB), HT-29; type: cell-based; conditions: for GI50 / LC50 (concentration for 50% cell killing): Homo sapiens, HT-29, 48 h; for GI50 / HT-29 TGI: SRB assay, 48 hours exposure; for GI50: read-out: HT-29 GI50; for LC50 (concentration for 50% cell killing): read-out: HT-29 LC50, SRB assay, 48 hours exposure
Outline: as §1

DU-145 = assay: Inhibition of cells growth by colorimetric assay (SRB), DU-145; type: cell-based; conditions: for GI50 / CC50: Homo sapiens, DU-145, 48 h; for GI50 / DU-145 TGI: SRB assay, 48 hours exposure; for GI50: read-out: DU-145 GI50; for CC50: read-out: DU-145 LC50, SRB assay, 48 hours exposure
Outline: as §1

OVCAR-3 = assay: Inhibition of cells growth by colorimetric assay (SRB), OVCAR-3; type: cell-based
Procedure: as §2, §3, §4, §5, §6
The values for mean+/−SD of data from triplicate wells are calculated. Some parameters for cellular responses can be calculated: GI=growth inhibition, TGI=total growth inhibition (cytostatic effect) and LC=cell killing (cytotoxic effect). […]

[1] = MCF7, SRB assay, 48 hours exposure

Source text for Heart: (§9) Toxicity was asssessed by the methods reported in Toxicology in Vitro, 15 (2001) 571-577, J. Luber Narod et al.: “Evaluation of the use of in vitro methodolodies as tools for screening new compounds for potential in vivo toxicity”.
Source text for Kidney: as §9
Source text for Liver: as §9
Source text for Myelo: as §9
Source text for Skeletal: as §9

Structure (SMILES): COc1cc2c(cc1OC(=O)OC(C)(C)C)CCN[C@]21CS[C@@H]2c3c(OC(=O)OC(C)(C)C)c(C)c4c(c3[C@H](COC1=O)N1C2[C@H]2c3c(cc(C)c(OC)c3O)C[C@@H]([C@@H]1O)N2C)OCO4 (stereo partly drawn) [Compound 173]
- GI50 (SK-MEL-28): 2.17 nM
- CC50 (SK-MEL-28): 10.9 nM
- MEL-28 TGI (SK-MEL-28): 5.43E-09
- CC50 (MDA-MB-231): 21.7 nM
- GI50 (MDA-MB-231): 2.17 nM
- MB-231 TGI (MDA-MB-231): 7.61E-09
- GI50 (MCF-7; MCF7, 48 h): 3.26 nM
- CC50 (MCF-7; MCF7, 48 h): 109 nM
- MCF TGI (MCF-7; SRB assay, 48 hours exposure): 9.78E-09
- LC50 (A-498): 21.7 nM
- GI50 (A-498): 2.17 nM
- A-498 TGI (A-498): 4.35E-09
- GI50 (SW620; SW-620, 48 h): 3.26 nM
- LC50 (SW620; SW-620, 48 h): 21.7 nM
- SW-620 TGI (SW620; SRB assay, 48 hours exposure): 6.52E-09
- Toxicity Data Myelo (Myelo): 4.98E-06
- Toxicity Data Kidney (Kidney): 7.09E-08
- GI50 (A-549): 3.26 nM
- LC50 (concentration for 50% cell killing) (A-549): 10.9 nM
- A-549 TGI (A-549; SRB assay, 48 hours exposure): 4.35E-09
- Toxicity Data Heart (Heart): 1.19E-07
- GI50 (HT-29): 2.17 nM
- LC50 (concentration for 50% cell killing) (HT-29): 9.78 nM
- HT-29 TGI (HT-29): 6.52E-09
- Toxicity Data Skeletal (Skeletal): 2.49E-06
- GI50 (DU-145): 1.09 nM
- CC50 (DU-145): 3.26 nM
- DU-145 TGI (DU-145): 2.17E-09
- Toxicity Data Liver (Liver): 4.03E-08

Structure (SMILES): COc1cc2c(cc1O)CCN[C@]21CS[C@@H]2c3c(OC)c(C)c4c(c3[C@H](COC1=O)N1C2[C@H]2c3c(cc(C)c(OC)c3O)C[C@@H]([C@@H]1O)N2C)OCO4 (stereo partly drawn) [Compound 182]
- GI50 (SK-MEL-28): 0.409 nM
- CC50 (SK-MEL-28): 5.45 nM
- MEL-28 TGI (SK-MEL-28): 1.36E-09
- CC50 (MDA-MB-231): 8.17 nM
- GI50 (MDA-MB-231): 0.272 nM
- MB-231 TGI (MDA-MB-231): 6.81E-10
- CC50 (MCF-7; MCF7, 48 h): 13.6 nM
- GI50 (MCF-7; [1]): 2.72 nM
- MCF TGI (MCF-7; SRB assay, 48 hours exposure): 5.45E-09
- LC50 (A-498): 5.45 nM
- GI50 (A-498): 0.409 nM
- A-498 TGI (A-498): 1.36E-09
- GI50 (SW620; SW-620, 48 h): 1.09 nM
- LC50 (SW620; SW-620, 48 h): 13.6 nM
- SW-620 TGI (SW620; SRB assay, 48 hours exposure): 4.09E-09
- Toxicity Data Myelo (Myelo): 3.19E-08
- Toxicity Data Kidney (Kidney): 1.26E-08
- GI50 (A-549; SRB assay, 48 hours exposure): 0.409 nM
- LC50 (concentration for 50% cell killing) (A-549): 68.1 nM
- A-549 TGI (A-549; SRB assay, 48 hours exposure): 1.36E-09
- Toxicity Data Heart (Heart): 3.95E-08
- GI50 (HT-29): 0.272 nM
- LC50 (concentration for 50% cell killing) (HT-29): 1.36 nM
- HT-29 TGI (HT-29): 1.09E-09
- Toxicity Data Skeletal (Skeletal): 1.49E-08
- GI50 (DU-145): 0.272 nM
- CC50 (DU-145): 1.09 nM
- DU-145 TGI (DU-145): 4.09E-10
- Toxicity Data Liver (Liver): 3.98E-09

Structure (SMILES): COc1cc2c(cc1OC(=O)/C=C/c1ccccc1)CCN[C@]21CS[C@@H]2c3c(OC(C)=O)c(C)c4c(c3[C@H](COC1=O)N1C2[C@@H]2N[C@@H](Cc3cc(C)c(OC)c(O)c32)[C@@H]1O)OCO4 (stereo partly drawn) [Compound 212]
- GI50 (SK-MEL-28): 1.14 nM
- CC50 (SK-MEL-28): 9.11 nM
- MEL-28 TGI (SK-MEL-28): 3.42E-09
- CC50 (MDA-MB-231): 114 nM
- GI50 (MDA-MB-231): 0.228 nM
- MB-231 TGI (MDA-MB-231): 5.69E-09
- CC50 (MCF-7; MCF7, 48 h): 342 nM
- GI50 (MCF-7; [1]): 0.342 nM
- MCF TGI (MCF-7; SRB assay, 48 hours exposure): 1.14E-08
- LC50 (A-498): 1140 nM
- GI50 (A-498): 2.28 nM
- A-498 TGI (A-498): 1.14E-08
- LC50 (SW620; SW-620, 48 h): 2280 nM
- GI50 (SW620; SW-620, SRB assay, 48 hours exposure): 0.0228 nM
- SW-620 TGI (SW620; SRB assay, 48 hours exposure): 1.14E-08
- Toxicity Data Myelo (Myelo): 8.58E-09
- Toxicity Data Kidney (Kidney): 3.34E-09
- GI50 (A-549): 9.11 nM
- LC50 (concentration for 50% cell killing) (A-549): 114 nM
- A-549 TGI (A-549; SRB assay, 48 hours exposure): 2.28E-08
- CC50 (OVCAR-3; Homo sapiens, OVCAR-3, 48 h, read-out: OVCAR LC50): 2280 nM
- GI50 (OVCAR-3; Homo sapiens, OVCAR-3, SRB assay, 48 hours exposure): 0.342 nM
- OVCAR TGI (OVCAR-3; SRB assay, 48 hours exposure): 3.42E-09
- Toxicity Data Heart (Heart): 3.20E-08
- GI50 (HT-29): 2.28 nM
- LC50 (concentration for 50% cell killing) (HT-29): 11.4 nM
- HT-29 TGI (HT-29): 4.56E-09
- Toxicity Data Skeletal (Skeletal): 2.21E-08
- GI50 (DU-145): 0.114 nM
- CC50 (DU-145): 11.4 nM
- DU-145 TGI (DU-145): 6.83E-10
- Toxicity Data Liver (Liver): 8.68E-08
